Test results: patent publication US20230040182A1, “ARYL HETEROBICYCLIC COMPOUNDS AS Kv1.3 POTASSIUM SHAKER CHANNEL BLOCKERS” (priority 2019, published 2023)

target: T1, Kv1.3 potassium channel (Homo sapiens, UniProt P22001); test: Kv1.3 potassium channel blocker activity, automated whole-cell patch clamp (Patchliner); assay type: cell-based; conditions: CHO-K1 cells stably expressing Kv1.3; whole-cell current, Hill fit
T1 construct: expressed in transfected cells
Description: Example 9. Evaluation of Kv1.3 Potassium Channel Blocker Activities
This assay is used to evaluate the disclosed compounds' activities as Kv1.3 potassium channel blockers.
CHO-K1 cells stably expressing Kv1.3 were grown in DMEM containing 10% heat-inactivated FBS, 1 mM Sodium Pyruvate, 2 mM L-Glutamine and G418 (500 μg/ml). Cells were grown in culture flasks at 37° C. in a […] incubator.
The cells were bathed in an extracellular solution containing 140 mM NaCl, 4 mM KCl, 2 mM CaCl2, 1 mM MgCl2, 5 mM Glucose, 10 mM HEPES; pH adjusted to 7.4 with NaOH; 295-305 mOsm. The internal solution contained 50 mM KCl, 10 mM NaCl, 60 mM KF, 20 mM EGTA, 10 mM HEPES; pH adjusted to 7.2 with KOH; 285 mOsm. All compounds were dissolved in DMSO at 30 mM. Compound stock solutions were freshly diluted with external solution to concentrations of 30 nM, 100 nM, 300 nM, 1 μM, 3 μM, 10 μM, 30 μM and 100 μM. The highest content of DMSO (0.3%) was present in 100 μM.
The currents were evoked by applying 100 ms depolarizing pulses from −90 mV (holding potential) to +40 mV were applied with 0.1 Hz frequency. Control (compound-free) and compound pulse trains for each compound concentration applied contained 20 pulses. 10-second breaks were used between pulse trains (see Table A below).
Whole-cell current recordings and compound application were enabled by means of an automated patch clamp platform Patchliner (Nanion Technologies GmbH). EPC 10 patch clamp amplifier (HEKA Elektronik Dr. Schulze GmbH) along with Patchmaster software (HEKA Elektronik Dr. Schulze GmbH) was used for data acquisition. Data were sampled at 10 kHz without filtering. Passive leak currents were subtracted online using a P/4 procedure (HEKA Elektronik Dr. Schulze GmbH). Increasing compound concentrations were applied consecutively to the same cell without washouts in between. Total compound incubation time before the next pulse train was not longer than 10 seconds. Peak current inhibition was observed during compound equilibration.
AUC and peak values were obtained with Patchmaster (HEKA Elektronik Dr. Schulze GmbH). To determine IC50, the last single pulse in the pulse train corresponding to a given compound concentration was used. Obtained AUC and peak values in the presence of compound were normalized to control values in the absence of compound. Using Origin (OridinLab), IC50 was derived from data fit to Hill equation: Icompound/Icontrol=(100−A)/(1+([compound]/IC50)nH)+A, where IC50 value is the concentration at which current inhibition is half-maximal, [compound] is the applied compound concentration, A is the fraction of current that is not blocked and nH is the Hill coefficient.

T1 sequence (P22001 whole entry): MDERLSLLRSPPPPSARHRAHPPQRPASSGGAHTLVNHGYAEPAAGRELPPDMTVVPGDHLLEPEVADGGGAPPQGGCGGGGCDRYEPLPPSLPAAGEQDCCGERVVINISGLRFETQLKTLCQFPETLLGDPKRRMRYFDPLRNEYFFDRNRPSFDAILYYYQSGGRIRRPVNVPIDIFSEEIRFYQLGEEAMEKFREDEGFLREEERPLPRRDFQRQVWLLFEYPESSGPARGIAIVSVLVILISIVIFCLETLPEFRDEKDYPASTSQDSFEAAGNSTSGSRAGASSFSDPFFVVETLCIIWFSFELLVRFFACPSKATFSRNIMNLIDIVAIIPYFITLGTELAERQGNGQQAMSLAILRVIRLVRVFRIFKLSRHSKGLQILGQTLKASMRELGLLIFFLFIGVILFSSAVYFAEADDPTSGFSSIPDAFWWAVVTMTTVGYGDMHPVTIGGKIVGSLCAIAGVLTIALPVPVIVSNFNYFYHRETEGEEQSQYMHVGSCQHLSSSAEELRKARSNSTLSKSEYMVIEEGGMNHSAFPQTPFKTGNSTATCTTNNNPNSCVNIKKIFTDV

IC50 | SMILES
< 1 µM | CC(C)[C@@H](O)[C@@H]1NC(=O)[C@@H]2C[C@H](c3c(O)ccc(Cl)c3Cl)CCN2C1=O [Compound 42, (3S,8R,9aS)-8-(2,3-dichloro-6-hydroxyphenyl)-3-[(1R)-1-hydroxy-2-methylpropyl]-hexahydro-2H-pyrido[1,2-a]pyrazine-1,4-dione]
< 10 µM | O=C1[C@@H]2C[C@@H](O)CN2C(=O)[C@@H]2C[C@H](c3c(O)ccc(Cl)c3Cl)CCN12 [Compound 43, (2R,5aS,7R,11aS)-7-(2,3-dichloro-6-hydroxyphenyl)-2-hydroxyhexahydro-1H-pyrido[1,2-a]pyrrolo[1,2-d]pyrazine-5,11(5aH,11aH)-dione]
< 10 µM | O=C1N[C@@H](CO)C(=O)N2CC[C@H](c3c(O)ccc(Cl)c3Cl)C[C@H]12 [Compound 46, (3S,8S,9aR)-8-(2,3-dichloro-6-hydroxyphenyl)-3-(hydroxymethyl)hexahydro-4H-pyrido[1,2-a]pyrazine-1,4(6H)-dione]
< 10 µM | CC1(C)NC(=O)C2CC(c3c(O)ccc(Cl)c3Cl)CCN2C1=O (stereo not shown) [Compound 47, 8-(2,3-dichloro-6-hydroxyphenyl)-3,3-dimethyl-octahydro-1H-pyrido[1,2-a]pyrazine-1,4-dione]
< 10 µM | CC(C)[C@H]1NC(=O)[C@H]2C[C@@H](c3c(O)ccc(Cl)c3Cl)CCN2C1=O [Compound 48, (8S,9aR)-8-(2,3-dichloro-6-hydroxyphenyl)-3-(3R)-isopropyl-hexahydro-2H-pyrido[1,2-a]pyrazine-1,4-dione]
< 30 µM | CC[C@H]1NC(=O)[C@@H]2C[C@H](c3c(O)ccc(Cl)c3Cl)CCN2C1=O [Compound 51, (8R,9aS)-8-(2,3-dichloro-6-hydroxyphenyl)-3-(3R)-ethyl-hexahydro-2H-pyrido[1,2-a]pyrazine-1,4-dione]
< 1 µM | CC(C)[C@H]1NC(=O)[C@@H]2C[C@H](c3c(O)ccc(Cl)c3Cl)CCN2C1=O [Compound 54, (8R,9aS)-8-(2,3-dichloro-6-hydroxyphenyl)-3-(3R)-isopropyl-hexahydro-2H-pyrido[1,2-a]pyrazine-1,4-dione]
< 10 µM | O=C1NCC(=O)N2CC[C@H](c3c(O)ccc(Cl)c3Cl)C[C@H]12 [Compound 56, (8S,9aR)-8-(2,3-dichloro-6-hydroxyphenyl)hexahydro-4H-pyrido[1,2-a]pyrazine-1,4(6H)-dione]
< 10 µM | O=C1N[C@H](CO)C(=O)N2CC[C@H](c3c(O)ccc(Cl)c3Cl)C[C@H]12 [Compound 57, (3R,8S,9aR)-8-(2,3-dichloro-6-hydroxyphenyl)-3-(hydroxymethyl)hexahydro-4H-pyrido[1,2-a]pyrazine-1,4(6H)-dione]
< 10 µM | O=C1[C@H]2C[C@@H](O)CN2C(=O)[C@H]2C[C@@H](c3c(O)ccc(Cl)c3Cl)CCN12 [Compound 59, (2R,5aR,7S,11aR)-7-(2,3-dichloro-6-hydroxyphenyl)-2-hydroxyhexahydro-1H-pyrido[1,2-a]pyrrolo[1,2-d]pyrazine-5,11(5aH,11aH)-dione]
< 10 µM | CC(C)[C@H](O)[C@H]1NC(=O)[C@H]2C[C@@H](c3c(O)ccc(Cl)c3Cl)CCN2C1=O [Compound 61, (3R,8S,9aR)-8-(2,3-dichloro-6-hydroxyphenyl)-3-[(1S)-1-hydroxy-2-methylpropyl]-hexahydro-2H-pyrido[1,2-a]pyrazine-1,4-dione]
< 10 µM | C[C@H]1NC(=O)[C@H]2C[C@@H](c3c(O)ccc(Cl)c3Cl)CCN2C1=O [Compound 62, (3R,8S,9aR)-8-(2,3-dichloro-6-hydroxyphenyl)-3-methyl-hexahydro-2H-pyrido[1,2-a]pyrazine-1,4-dione]
< 30 µM | O=C1N[C@H](CCO)C(=O)N2CC[C@H](c3c(O)ccc(Cl)c3Cl)C[C@H]12 [Compound 63, (3R,8S,9aR)-8-(2,3-dichloro-6-hydroxyphenyl)-3-(2-hydroxyethyl)-hexahydro-2H-pyrido[1,2-a]pyrazine-1,4-dione]
